# Experimental data published in patent US8765117B2, “Generation of vascularized human heart tissue and uses thereof” (The General Hospital Corporation, priority 2009, dated 2014).
# Entries after “also recorded” stand apart in the source; their conditions may differ.
# Experiments:
# Type in all cases: cell-based
# [1] = tested on: human ISL1-βgeo BAC transgenic cells; experiment: Expansion of hES cell-derived ISL1+ clones on mouse CMC feeders with BIO
# Procedure: FIGS. 9A-9B show the expansion and characterization of hES cell-derived ISL1+ cardiac progenitors. FIG. 9A show ISL1+ cells increased by BIO treatment. Day 6 EBs of human ISL1-βgeo BAC transgenic cells were dissociated and cultured on mouse CMC feeders for two days before treated with and without BIO for another five days. Colonies were stained with anti-ISL1 antibody and counted for ISL1+ ones. […] Cells dissociated from day 7 EBs of human ISL1-cre DsRed cells were plated on Wnt3a-secreting feeders, cultured for five days and FACS isolated. Gene expression of DsRed+ cells was compared with DsRed− cells. Bars represent mean±s.d.; n=3.
# Canonical Wnt pathways can promote the expansion of Isl1+ cardiac progenitors in the mouse^18-20. […] The inventors then isolated human ISL1-cre DsRed cells from day 7 EBs, which were dissociated and plated on a plastic surface, MEF, Wnt3a-secreting, or L cell feeders.
# [2] = tested on: human Isl1+ primordial progenitors; experiment: Differentiation of human Isl1+ primordial progenitors along vasculargenic lineages into Isl1+/CD31+ cells (FACS with anti-CD31); settings: for increase of human Isl1+/CD31+ (GFP+/CD31+) cells: VEGF D4-D22 or ALK5 inhibitor D7-D22, compared to absence of the agent; for proportion of Isl1−/CD31+ cells: human ES cells
# Text: When Isl1+ is expressed in this ES cell line, the cells co-express GFP.
# [3] = tested on: mouse Isl1+ cells; experiment: Vasculargenic commitment of mouse ES cells into mouse Isl1+/CD31+ cells (FACS with anti-CD31); settings: for proportion of Isl1−/CD31+ cells: mouse ES cells; for vasculargenic commitment / differentiation into Isl1+/CD31+ cells (in words): mouse cells
Molecule,ISL1+ cells (in words) ([1]; BIO for five days on mouse CMC feeders),increase of human ISL1+ clones ([1]; compared to CMC control),increase of human Isl1+/CD31+ (GFP+/CD31+) cells [2],increase of human Isl1+/CD31+ (GFP+/CD31+) cells ([2]; listed as ALK5i) [fold],proportion of Isl1−/CD31+ cells [2],vasculargenic commitment / differentiation into human Isl1+/CD31+ cells (in words) [2],vasculargenic commitment / differentiation into human Isl1+/CD31+ cells (in words) ([2]; listed as ALK5i),overall human Isl1+ (GFP+) population ([2]; prolonged treatment),proportion of Isl1−/CD31+ cells [3],vasculargenic commitment / differentiation into Isl1+/CD31+ cells (in words) [3],vasculargenic commitment / differentiation into Isl1+/CD31+ cells (in words) ([3]; listed as ALK5i),vessel-like structures in vitro ([2]; VEGF treatment),"vessel-like structures ([3]; Isl1+ (YFP+) cells sorted at D8, cultured with VEGF until D20)","increase of efficiency of differentiation into Isl1+/CD31+ cells ([3]; mouse Isl1+ cells, VEGF about 2 weeks from D4)"
"O=C1Nc2cc(Br)ccc2/C1=C1/Nc2ccccc2/C1=N\O [BIO, 6-bromoindirubin-3′-oxime]",increased,over 30%,,,,,,,,,,,,
"NC(=O)c1ccc(-c2nc(-c3ccc4c(c3)OCO4)c(-c3ccccn3)[nH]2)cc1 [SB431542, 4-[4-(1,3-Benzodioxol-5-yl)-5-(2-pyridinyl)-1H-imidazol-2-yl]-benzamide]",,,4-5 fold,4 to 5,increases the proportion of Isl1−/CD31+ cells,increases the efficiency of differentiation,promotes the vasculargenic commitment,reduced the overall human Isl1+ (GFP+) population,increases the proportion of Isl1−/CD31+ cells,increases the efficiency of differentiation,promotes the vasculargenic commitment,,,
VEGF,,,,,increases the proportion of Isl1−/CD31+ cells,promotes the vasculargenic commitment,,,increases the proportion of Isl1−/CD31+ cells,promotes the vasculargenic commitment; also recorded: increases efficiency of differentiation,,produced vessel-like structures in vitro,demonstrated vessel-like structures,at least 2 fold
